What was measured:
Assay type in all cases: cell-based
SNB-19 = assay: NCI 60 five-dose screen SNB-19; conditions: Homo sapiens, five-dose; for CC50: read-out: LC50 (the source's name) (converted)
HCC-2998 = assay: NCI 60 five-dose screen HCC-2998; conditions: Homo sapiens, five-dose; for CC50: read-out: LC50 (the source's name) (converted)
SNB-75 = assay: NCI 60 five-dose screen SNB-75; conditions: Homo sapiens, five-dose; for CC50: read-out: LC50 (the source's name) (converted)
SK-OV-3 = assay: NCI 60 five-dose screen SK-OV-3; conditions: Homo sapiens, five-dose; for CC50: read-out: LC50 (the source's name) (converted)
NCI-H460 = assay: NCI 60 five-dose screen NCI-H460; conditions: Homo sapiens, five-dose; for CC50: read-out: LC50 (the source's name) (converted)
HCT-15 = assay: NCI 60 five-dose screen HCT-15; conditions: Homo sapiens, five-dose; for CC50: read-out: LC50 (the source's name) (converted)
CAKI-1 = assay: NCI 60 five-dose screen CAKI-1; conditions: Homo sapiens, five-dose; for CC50: read-out: LC50 (the source's name) (converted)
SF-539 = assay: NCI 60 five-dose screen SF-539; conditions: Homo sapiens, five-dose; for CC50: read-out: LC50 (the source's name) (converted)
UACC-257 = assay: NCI 60 five-dose screen UACC-257; conditions: Homo sapiens, five-dose; for CC50: read-out: LC50 (the source's name) (converted)
HT29 = assay: NCI 60 five-dose screen HT29; conditions: Homo sapiens, HT-29, five-dose; for CC50: read-out: LC50 (the source's name) (converted)
UO-31 = assay: NCI 60 five-dose screen UO-31; conditions: Homo sapiens, five-dose; for CC50: read-out: LC50 (the source's name) (converted)
NCI/ADR-RES = assay: NCI 60 five-dose screen NCI/ADR-RES; conditions: Homo sapiens, five-dose; for CC50: read-out: LC50 (the source's name) (converted)
SF-268 = assay: NCI 60 five-dose screen SF-268; conditions: Homo sapiens, five-dose; for CC50: read-out: LC50 (the source's name) (converted)
HOP-62 = assay: NCI 60 five-dose screen HOP-62; conditions: Homo sapiens, five-dose; for CC50: read-out: LC50 (the source's name) (converted)

In the case of FC(F)(F)c1cc2c(Cl)ncnc2n1CCN1CCOCC1 [NUCC-0226680], the GI50 (SNB-19) is reported as 15.5 µM, the IC50 (SNB-19) is reported as 28.8 µM and the IC (TGI) (SNB-19) is reported as 33.1 µM. The CC50 (SNB-19) was 70.8 µM, the GI50 (HCC-2998) was 2.24 µM and the IC50 (HCC-2998) was 4.07 µM. It also gave an IC (TGI) (HCC-2998) of 5.13 µM, a CC50 (HCC-2998) of 15.8 µM and a GI50 (SNB-75) of 10.2 µM. The IC50 (SNB-75) was 23.4 µM, the IC (TGI) (SNB-75) was 22.4 µM and the CC50 (SNB-75) was 49 µM. For the same compound, the GI50 (SK-OV-3) was 100 µM, the IC50 (SK-OV-3) was 100 µM and the IC (TGI) (SK-OV-3) was 100 µM. For the same compound, the CC50 (SK-OV-3) was no less than 100 µM, the GI50 (NCI-H460) was 23.4 µM and the IC50 (NCI-H460) was 28.2 µM. The IC (TGI) (NCI-H460) was 100 µM, the CC50 (NCI-H460) was no less than 100 µM and the GI50 (HCT-15) was 3.31 µM. It also gave an IC50 (HCT-15) of 4.27 µM, an IC (TGI) (HCT-15) of 17.8 µM and a CC50 (HCT-15) of no less than 100 µM. The GI50 (CAKI-1) was 27.5 µM, the IC50 (CAKI-1) was 56.2 µM and the IC (TGI) (CAKI-1) was 100 µM. For the same compound, the CC50 (CAKI-1) was no less than 100 µM, the GI50 (SF-539) was 18.2 µM and the IC50 (SF-539) was 33.9 µM. It also gave an IC (TGI) (SF-539) of 42.7 µM, a CC50 (SF-539) of 97.7 µM and a GI50 (UACC-257) of 10.5 µM. For the same compound, the IC50 (UACC-257) was 23.4 µM, the IC (TGI) (UACC-257) was 30.2 µM and the CC50 (UACC-257) was 87.1 µM. For the same compound, the GI50 (HT29) was 27.5 µM, the IC50 (HT29) was 36.3 µM and the IC (TGI) (HT29) was 100 µM. For the same compound, the CC50 (HT29) was no less than 100 µM, the GI50 (UO-31) was 2.51 µM and the IC50 (UO-31) was 5.37 µM. The IC (TGI) (UO-31) was 8.91 µM, the CC50 (UO-31) was 37.2 µM and the GI50 (NCI/ADR-RES) was 30.2 µM. For the same compound, the IC50 (NCI/ADR-RES) was 57.5 µM, the IC (TGI) (NCI/ADR-RES) was 100 µM and the CC50 (NCI/ADR-RES) was no less than 100 µM. It also gave a GI50 (SF-268) of 14.8 µM, an IC50 (SF-268) of 28.2 µM and an IC (TGI) (SF-268) of 33.9 µM. It also gave a CC50 (SF-268) of 77.6 µM, a GI50 (HOP-62) of 38.9 µM and an IC50 (HOP-62) of 100 µM. The IC (TGI) (HOP-62) was 100 µM and the CC50 (HOP-62) was no less than 100 µM.

Compound FC(F)(F)CN1CCN(CCn2c(C(F)(F)F)cc3c(Cl)ncnc32)CC1 [NUCC-0226683] has a GI50 (SNB-19) of 13.2 µM, an IC50 (SNB-19) of 24 µM and an IC (TGI) (SNB-19) of 26.9 µM. It also gave a CC50 (SNB-19) of 53.7 µM, a GI50 (HCC-2998) of 1.82 µM and an IC50 (HCC-2998) of 3.24 µM. For the same compound, the IC (TGI) (HCC-2998) was 3.31 µM, the CC50 (HCC-2998) was 5.89 µM and the GI50 (SNB-75) was 3.09 µM. For the same compound, the IC50 (SNB-75) was 14.8 µM, the IC (TGI) (SNB-75) was 14.1 µM and the CC50 (SNB-75) was 38.9 µM. It also gave a GI50 (SK-OV-3) of 16.2 µM, an IC50 (SK-OV-3) of 38.9 µM and an IC (TGI) (SK-OV-3) of 43.7 µM. For the same compound, the CC50 (SK-OV-3) was no less than 100 µM, the GI50 (NCI-H460) was 2.69 µM and the IC50 (NCI-H460) was 3.63 µM. For the same compound, the IC (TGI) (NCI-H460) was 6.76 µM, the CC50 (NCI-H460) was 30.9 µM and the GI50 (HCT-15) was 2.57 µM. For the same compound, the IC50 (HCT-15) was 3.55 µM, the IC (TGI) (HCT-15) was 7.41 µM and the CC50 (HCT-15) was 50.1 µM. It also gave a GI50 (CAKI-1) of 13.5 µM, an IC50 (CAKI-1) of 25.7 µM and an IC (TGI) (CAKI-1) of 30.9 µM. It also gave a CC50 (CAKI-1) of 69.2 µM, a GI50 (SF-539) of 12.6 µM and an IC50 (SF-539) of 22.9 µM. It also gave an IC (TGI) (SF-539) of 28.8 µM, a CC50 (SF-539) of 66.1 µM and a GI50 (UACC-257) of 4.07 µM. The IC50 (UACC-257) was 11 µM, the IC (TGI) (UACC-257) was 17 µM and the CC50 (UACC-257) was 57.5 µM. It also gave a GI50 (HT29) of 5.5 µM, an IC50 (HT29) of 7.41 µM and an IC (TGI) (HT29) of 36.3 µM. For the same compound, the CC50 (HT29) was no less than 100 µM, the GI50 (UO-31) was 1.62 µM and the IC50 (UO-31) was 3.02 µM. For the same compound, the IC (TGI) (UO-31) was 3.24 µM, the CC50 (UO-31) was 6.61 µM and the GI50 (NCI/ADR-RES) was 19.1 µM. The IC50 (NCI/ADR-RES) was 35.5 µM, the IC (TGI) (NCI/ADR-RES) was 46.8 µM and the CC50 (NCI/ADR-RES) was no less than 100 µM. For the same compound, the GI50 (SF-268) was 5.25 µM, the IC50 (SF-268) was 11.5 µM and the IC (TGI) (SF-268) was 21.4 µM. The CC50 (SF-268) was 70.8 µM, the GI50 (HOP-62) was 13.8 µM and the IC50 (HOP-62) was 28.8 µM. For the same compound, the IC (TGI) (HOP-62) was 32.4 µM and the CC50 (HOP-62) was 75.9 µM.
